# Key:
# FLO11 = assay: PFLO11-lacZ reporter, β-galactosidase activity; assay type: cell-based, S. cerevisiae; settings: for FL011-lacZ (relative expression): Table 1, strain MY1405 with plasmid MB1339, control pTCN23 = 1.0; for FLO11-lacZ (relative expression): Table 2, strain MY1405 with MB1339, control pTCN23 = 1.0
# Description: Transformation of S. cerevisiae was by lithium acetate/single-stranded carrier DNA/polyethylene glycol (LiAc/ss-DNA/PEG) protocol (see, e.g., Gietz and Woods (1998), in: Methods in Microbiology, Chapter 26, Brown and Tuite, eds., Academic Press, New York; Agatep et al. (1998), TTO 1:P01525, Technical Tips Online at http://tto.trends.com) with a library of plasmids expressing unique random peptide sequences in the context of a Staphylococcal nuclease “scaffold” to generate more than 20 million independent Ura^+ transformants (Norman et al. (1999), Science 285:591-595). The transformants were replica-plated to YPD plates supplemented with […] G418 to select for clones with increased expression of the invasion-related reporter (FLO11) and consequent G418 resistance. Plates were incubated at 30° C. for 2-4 days and resistant clones were collected in pools (50 pools total) by scraping the colonies off each plate in a small volume of water. Plasmids were isolated as a pool (Hoffman and Winston (1986), Gene 57:267), transformed into E. coli, and re-transformed as a pool into the original selection strain, MY1560. Ura^+ transformants were again replica plated to YPD+100 μg/ml G418 plates. […] Positive clones were further tested for plasmid dependence by (1) examining the correlation between spontaneous loss of the peptide-expressing plasmid and loss of G418 resistance, and (2) recovering the plasmid from the yeast, retransforming into the original selection strain, and characterizing the G418 resistance. […] The remaining candidate peptides were characterized for their effects on expression of PFLO11-lacZ reporter constructs. This was performed by co-transforming the candidate plasmid into S. cerevisiae strain MY1405 (MATα ura3Δ0 his3Δ0::hisG trp1Δ0::hisG) which contains plasmid MB1339 [PFLO11-lacZ TRP1 […]] and measuring β-galactosidase activity.
# [1] = test system: FLO11 promoter (PFLO11) fused to the neo gene; assay: PFLO11-neo reporter selection: G418 resistance on YPD; assay type: cell-based, S. cerevisiae; settings: strain MY1560, YPD + 100 μg/ml G418
# Description: To identify peptides that promote invasion we used S. cerevisiae strain MY1560 (MATα/MATαΔ::LEU2 ura3Δ::PFLO11-neo/ura3Δ0 leu2Δ0/leu2Δ0 trp1Δ0::hisG/trp1Δ10::hisG his3Δ0::hisG/his3Δ0::hisG). This strain contains the FLO11 promoter (PFLO11) fused to the neo gene conferring resistance to the drug G418. FLO11 is a cell-surface flocculin required for pseudohyphal and invasive growth in S. cerevisiae. […] Thus, altered FLO11 expression can be used as an indicator of an altered invasion phenotype.
# It was empirically determined that the wild type MY1560 strain (untransformed or transformed with a plasmid representing the peptide library staph nuclease scaffold) is unable to grow on YPD media supplemented with 100 μg/ml G418. In contrast, hyperinvasive strains are resistant to this concentration of the drug and form colonies on G418-supplemented YPD media. Thus, transformation of this strain with an invasion-promoting peptide should render the cells capable of growing on G418-supplemented YPD media. […]
# SMP1 = settings: Table 2, strain MY1405 with MB1338, control pTCN23 = 1.0
# Description: S. cerevisiae strain MY1561 (MATα/MATαΔ::LEU2 ura3Δ::PSMP1-neo/ura3Δ0 leu2Δ0/leu2Δ0 trp1Δ0::hisG/trp1Δ0::hisG/his3Δ0::hisG/his3Δ0::hisG) was transformed with the peptide library as described above to generate 10 million independent Ura^+ clones. The transformed clones were mated to lawns of S. cerevisiae strain MY1406 [MB1337] and subsequently replica-plated to SC-Ura-Trp plates to select for triploids carrying the library clones in addition to the PSMP1-neo reporter. […] The MY1561/MY1406 [MB1337] triploids were replica-plated to YPD plates containing 100, 150, and 200 μg/ml G418, and resistant colonies were picked and retested, and their phenotypes were checked for library plasmid dependence using 5-FOA. Promising candidates were lysed and their plasmids recovered in E. coli, amplified, and reintroduced into MY1561 along with MB 1337(MY1561 is an S. cerevisiae strain and MB 1337 is a plasmid). […] In addition, S. cerevisiae strain MY1405 was transformed with the peptide clones along with MB1338 [PSMP1-lacZ TRP1 2 micron] and MB1339 [PFLO11-lacZ TRP1 2 micron], and the enzyme assays were monitored. […] Peptide inhibitors of invasion were further characterized for their effects on calcofluor resistance, a phenotype associated with mutations in the rim101/pH response pathway.
# [2] = test system: hyphal transition in C. albicans; assay: serum induction assay of hyphal transition; assay type: cell-based; settings: C. albicans transformants, serum inducing media, 37° C., relative to parent staph nuclease scaffold
# PHWP1-lacZ reporter = PHWP1-lacZ reporter visual screen on X-Gal plates; assay type: cell-based, C. albicans
substance,measurement,setting,value
"AFSRRGRRAWSWPVSN [5-48, 2, invasion-promoting random peptide expressed in loop of Staphylococcal nuclease scaffold]",FL011-lacZ (relative expression),FLO11,12.9
"ALARWLEIELHPQGLI [5-16, 3, invasion-promoting random peptide expressed in loop of Staphylococcal nuclease scaffold]",FL011-lacZ (relative expression),FLO11,13.3
"CGLGGCCCEIFWSFSN [5-30, 3, invasion-promoting random peptide expressed in loop of Staphylococcal nuclease scaffold]",FL011-lacZ (relative expression),FLO11,7.3
"ELAYKFGRDWARLYFS [Clone 5-75-1, invasion-promoting random peptide expressed in loop of Staphylococcal nuclease scaffold]",FL011-lacZ (relative expression),FLO11,15.0
"EWCEICHRLVWVFCFT [5-34, 3, invasion-promoting random peptide expressed in loop of Staphylococcal nuclease scaffold]",FL011-lacZ (relative expression),FLO11,4.1
"GAGCAPRGCVVWSSLL [4-3, 1, invasion-promoting random peptide expressed in loop of Staphylococcal nuclease scaffold]",FL011-lacZ (relative expression),FLO11,2.5
"GHLWEWSGERWLLRWC [5-23, 1a, invasion-promoting random peptide expressed in loop of Staphylococcal nuclease scaffold]",FL011-lacZ (relative expression),FLO11,12.2
"GRRSRVRWSWPLFKSL [5-28, 3, invasion-promoting random peptide expressed in loop of Staphylococcal nuclease scaffold]",FL011-lacZ (relative expression),FLO11,18.2
"GSNGCVSVSSSVTSFM [5-49, 3, invasion-promoting random peptide expressed in loop of Staphylococcal nuclease scaffold]",PFLO11-neo Mediated G418^R,[1],+w
same,FL011-lacZ (relative expression),FLO11,2.5
"GYLRKHRALALGLNLH [4-9, 3, invasion-promoting random peptide expressed in loop of Staphylococcal nuclease scaffold]",FL011-lacZ (relative expression),FLO11,11.5
"HGDGLMRYFWSVAMWT [Clone 5-12-1a, invasion-promoting random peptide expressed in loop of Staphylococcal nuclease scaffold]",FL011-lacZ (relative expression),FLO11,2.7
"KRGRRRSHSCPSLMTD [4-1, 1, invasion-promoting random peptide expressed in loop of Staphylococcal nuclease scaffold]",FL011-lacZ (relative expression),FLO11,2.2
"KRKVCLLGGRFLVEWL [4-16, 2, invasion-promoting random peptide expressed in loop of Staphylococcal nuclease scaffold]",FL011-lacZ (relative expression),FLO11,14.8
LAYGPERYPRACMRWD [Clone B2a],FLO11-lacZ (relative expression),FLO11,0.2
same,SMP1-lacZ (relative expression),SMP1,8.9
"LDLDRVSVNRCSFMGF [Clone 5-20-1a, invasion-promoting random peptide expressed in loop of Staphylococcal nuclease scaffold]",FL011-lacZ (relative expression),FLO11,2.8
LGYGEAEREMVTCREH [Clone D4a],FLO11-lacZ (relative expression),FLO11,0.1
same,SMP1-lacZ (relative expression),SMP1,9.1
LGYMRASREMDGWKLL [Clone D2a],FLO11-lacZ (relative expression),FLO11,0.3
same,SMP1-lacZ (relative expression),SMP1,15.4
LPVSYVGQSTSQGPVW [Clone G4a-6],FLO11-lacZ (relative expression),FLO11,0.4
same,SMP1-lacZ (relative expression),SMP1,7.8
LPYEVSRVCWPRRLGY [Clone D2e],FLO11-lacZ (relative expression),FLO11,0.1
same,SMP1-lacZ (relative expression),SMP1,14.3
LSYMEGPYWHRSFRAV [Clone G2a],FLO11-lacZ (relative expression),FLO11,0.5
same,SMP1-lacZ (relative expression),SMP1,7.5
LTGYAKLLVQLSYFAM [Clone B2c-2],FLO11-lacZ (relative expression),FLO11,0.7
same,SMP1-lacZ (relative expression),SMP1,6.4
"LYRAFTWPVAKSLRME [5-37, 1, invasion-promoting random peptide expressed in loop of Staphylococcal nuclease scaffold]",FL011-lacZ (relative expression),FLO11,6.1
"MGCVKRLLWGCCMKLT [Clone 5-64-1, invasion-promoting random peptide expressed in loop of Staphylococcal nuclease scaffold]",FL011-lacZ (relative expression),FLO11,2.0
"PYGPFLLLTPF*A*L [5-32, 1, invasion-promoting random peptide in Staphylococcal nuclease scaffold; * denotes a stop codon; C. albicans expression plasmid MB2756]",FL011-lacZ (relative expression),FLO11,15.1
same,morphological switch between yeast and filamentous growth (hyphal transition),[2],effective in inducing the morphological switch between yeast and filamentous growth
same,β-galactosidase expression (PHWP1-lacZ reporter),PHWP1-lacZ reporter,higher level of β-galactosidase expression
"QPWYRKLRLAPVYPSD [Clone 5-39-1a, invasion-promoting random peptide expressed in loop of Staphylococcal nuclease scaffold]",FL011-lacZ (relative expression),FLO11,17.8
"QRIPLIGGVLFIAWIM [Clone 5-11-3a, invasion-promoting random peptide expressed in loop of Staphylococcal nuclease scaffold]",FL011-lacZ (relative expression),FLO11,3.0
"RCPVAHTLCWEVAGCT [Clone 5-43-3b, invasion-promoting random peptide expressed in loop of Staphylococcal nuclease scaffold]",FL011-lacZ (relative expression),FLO11,9.6
"REINWLRFFRLHKVID [5-45, 2, invasion-promoting random peptide expressed in loop of Staphylococcal nuclease scaffold]",FL011-lacZ (relative expression),FLO11,6.2
"RRWEVLRGDRTARLLS [5-25, 2, invasion-promoting random peptide expressed in loop of Staphylococcal nuclease scaffold]",FL011-lacZ (relative expression),FLO11,13.7
"RRWNRLKSWWPCFREQ [Clone 5-18-3b, invasion-promoting random peptide expressed in loop of Staphylococcal nuclease scaffold]",FL011-lacZ (relative expression),FLO11,2.6
"SGDAVMGFLLKCLGLQ [5-31, 2, invasion-promoting random peptide expressed in loop of Staphylococcal nuclease scaffold]",FL011-lacZ (relative expression),FLO11,12.6
"WWRPHERFIWAQYYLA [5-14, 3, invasion-promoting random peptide expressed in loop of Staphylococcal nuclease scaffold]",FL011-lacZ (relative expression),FLO11,4.9
"YEAGVILRACLWAVSG [4-17, 1, invasion-promoting random peptide expressed in loop of Staphylococcal nuclease scaffold]",FL011-lacZ (relative expression),FLO11,10.5
